Measurements taken from BigSolDB 2.1.

CC[C@H](C)[C@H](N)C(=O)O
solubility (mole fraction)
Details	283.15 K	288.15 K	293.15 K	298.15 K	303.15 K	308.15 K	313.15 K	318.15 K	323.15 K	328.15 K
in 1,4-dioxane	–	0.00118	0.00132	0.00146	0.00172	0.00195	0.00226	0.00258	0.00303	0.00339
in 2-butanone	0.000223	0.000324	0.000415	0.000538	0.000646	0.000819	0.000978	0.00118	0.00145	–
in acetone	1.21e-05	1.47e-05	1.82e-05	2.04e-05	3.19e-05	4.37e-05	6.14e-05	8.28e-05	0.000132	–
in acetonitrile	0.000153	0.000185	0.000276	0.000303	0.000374	0.000451	0.000525	0.000582	0.0007	–
in ethanol	0.000199	0.000227	0.000285	0.000363	0.000532	0.000716	0.000881	0.00101	0.00118	–
in ethyl acetate	0.000398	0.000441	0.000482	0.000544	0.000609	0.000656	0.000722	0.000803	0.000891	–
in isobutanol	0.00106	0.00125	0.0015	0.00186	0.00216	0.00246	0.00298	0.00346	0.00394	–
in isopropanol	0.00147	0.00173	0.00207	0.00241	0.00285	0.0034	0.00394	0.00454	0.00494	–
in methanol	0.000793	0.000814	0.000848	0.000891	0.000935	0.000984	0.00105	0.00114	0.00125	–
in methyl acetate	0.00174	0.00194	0.00223	0.00263	0.00292	0.00332	0.00387	0.00472	0.00545	–
in n-butanol	9.12e-05	0.000142	0.000221	0.000282	0.000372	0.000468	0.000585	0.00068	0.000838	–
in n-propanol	0.000187	0.000226	0.000268	0.000349	0.000515	0.00069	0.000817	0.0009	0.00101	–
